Legend:
Dengue Type 2 virus = experiment: Activity against Dengue Type 2 virus (DSP0196); assay type: cell-based
Experimental: (§1) The activity of dendrimeric compounds against Dengue virus (D) and West Nile Fever virus (WNF) was tested.
b) The compound [BHAlys] [Lys]16 [CSNH-4-Ph(SO3Na)]32 (SPL compound 2792) was tested for activity against Dengue Type 2 virus (DSP0196). (the compound has a sulfonic acid- or sulfonate-containing moiety which is […]

West Nile Fever virus = experiment: Activity against West Nile Fever virus (DSP0114), 4 concentration assay; assay type: cell-based
Experimental: as §1
a) The compound [BHAlys][Lys]16[CONH-Ph-3,5-(SO3Na)2]32 (SPL compound 7674) was tested for activity against West Nile Fever virus (DSP0114) (the compound has a sulfonic acid- or sulfonate-containing moiety which is
A 4 concentration assay was used. The positive control was interferon-alpha.

Substance | activity against Dengue Type 2 virus (in words) (Dengue Type 2 virus) | EC50 NR (Dengue Type 2 virus; Dengue Type 2 virus, NR readout) [µg/mL] | EC50 VIS (Dengue Type 2 virus; Dengue Type 2 virus, VIS readout) [µg/mL] | activity against West Nile Fever virus (in words) (West Nile Fever virus) | EC50 NR (West Nile Fever virus; West Nile Fever virus, NR readout) [µg/mL] | EC50 VIS (West Nile Fever virus; West Nile Fever virus, VIS readout) [µg/mL]
[BHAlys] [Lys]16 [CSNH-4-Ph(SO3Na)]32 [SPL compound 2792] | not active | 50.3 | > 100 |  |  | 
[BHAlys][Lys]16[CONH-Ph-3,5-(SO3Na)2]32 [SPL compound 7674] |  |  |  | not active | 34 | 22

From patent US20210236539A1, “METHOD OF PROPHYLAXIS OF ZIKA VIRUS INFECTION” (priority 2016, published 2021)
